Assay results: patent publication US20240366553A1, “ASPARTIC ACID COPPER COMPLEX, AND USE THEREOF” (GUANGZHOU INSIGHTER BIOTECHNOLOGY CO., LTD., priority 2021, published 2024)
Read-outs that look alike come from different tables or passages of the source.

Columns and labels:
[1] = system: Lingnan yellow-feathered, fast-growing, and large-sized broilers; settings: for Average feed consumption / Average weight gain / Feed-to-meat ratio / Survival rate (%) / Relative weight gain rate (%): broilers aged 1 to 21 days; for Relative weight gain rate (%): relative to control group; for Physical characteristics of the experimental chickens: experimental groups of compounds 1-7
From the text: (§1) Experimental animals: 900 one-day-old Lingnan yellow-feathered, fast-growing, and large-sized broilers; 150 weaned piglets;
(§2) Feeds: basal feed for chickens and basal feed for pigs that contain no antimicrobial drugs, copper sources and growth promoters;
(§3) Experimental samples: compound 1, compound 2, compound 3, compound 4, compound 5, compound 6, compound 7,
900 one-day-old Lingnan yellow-feathered, fast-growing, and large-sized broilers were randomly divided into 18 groups (50 broilers/group). […] The broilers had free access to food. The weight gain and feed conversion of the experimental chickens (aged from 1 to 21 days) in each experimental group were recorded.

weaned piglets = settings: for Average weight gain / Feed-to-meat ratio / Survival rate (%) / Total feed consumption / Total weight gain / Relative weight gain rate (%): weaned piglets, 30 days; for Total feed consumption / Total weight gain: 10 pigs; for Relative weight gain rate (%): control group = 100
From the text: as §1, §2, §3
150 weaned piglets were grouped according to Table 2 (10 piglets/group). […] The piglets had free access to food. The weight gain and feed conversion of the experimental pigs in each experimental group were recorded within 30 days after […] weaning.

[2] = system: black carp (subyearlings); assay: Use of aspartic acid copper complex in aquaculture feeds (black carp breeding experiment); format: in vivo; settings: 30 mg/kg in feed (as copper ions), 8 weeks
Description: Experimental fishes: The experimental fishes used were black carp (subyearlings), which were provided by the Dafeng fish nursery (Huizhou city, Guangdong province). Healthy and active fingerling black carps (uniform in size) were fed for 4 weeks in a big net cage (4×2×1.5 m^3) and then the formal breeding experiment was carried out. The experimental systems were small floating net cages (1.1×1.1×1.1 m^3 in size). Each small net cage was provided with an air-filling head, which allowed for continuous inflation of the cages for 24 h a day. The small net cages and the acclimatization net cage were all placed in a 3500 m^2 pond in the experimental field. […] During the trial, 480 black carps (fasted for 1 d) were randomly divided into 10 groups, with 4 replicates for each group and 12 fishes in each replicate. After weighing as a whole, the black carps were randomly placed into […] and fed with different experimental feeds.
Experimental feeds: The experimental feeds were formulated following the formula in Table 5. According to Table 6, different copper element supplements (calculated based on the copper ions) were added to the feeds in different experimental groups, respectively. The feed raw materials were subjected to ultrafine grinding and then granulated into floating expanded feeds (3 mm) using an expansion machine from Jiangsu Muyang Corporation. The demolding temperature was 130° C. 3% soybean oil was externally sprayed using an oil spraying device. The finished product was sealed and stored in a cool place for later use.
Experimental management: During the trial, the carps were manually fed in a restricted dose. The feeding dose was adjusted once a week, and the doses for all groups (based on the initial body weight) were completely consistent. The carps were fed twice a day (at 7:30 and 15:00). The experiment lasted for 8 weeks. During the trial, the water quality was regularly monitored, and throughout the breeding, the water temperature was kept at 26.88±3.08° C., DO>5.0 mg O L^−1, pH 7.8, ammonia nitrogen<0.50 mg NL^−1, and nitrite-nitrogen<0.05 mg N L^−1.
Parametric statistics: During the trial, the carps in each net cage were weighed as a whole one day after discontinuation of feeding, and the average weight gain (g) and feed-to-meat ratio were calculated. The calculation formulas are as follows:
Average weight gain (g)=Average final weight−Average initial weight; Feed-to-meat ratio=Food intake/Weight gain of fishes;

[3] = 50 mg/kg in feed (as copper ion)
[4] = 5 mg/kg in feed (as copper ion)
[5] = 100 mg/kg in feed (as copper ion)
[6] = 200 mg/kg in feed (as copper ion)
[7] = 300 mg/kg in feed (as copper ion)
[8] = group 1-30: 30 mg/kg in feed (as copper ion)
[9] = 8 mg/kg in feed (as copper ion)
[10] = group 1-200: 200 mg/kg in feed (as copper ion)
[11] = L-aspartic acid 105 mg/kg in feed, no copper source
[12] = L-aspartic acid group (105 mg/kg), versus control
[13] = L-aspartic acid 104 mg/kg in feed, no copper source

## NC(CC(=O)[O-])C(=O)[O-].O.O.[Cu+2] (racemic) [Compound 5, [(Cu(II))(DL-Asp)(H2O)2]]
[1]; [3]
  Average feed consumption: 917 g
  Average weight gain: 503 g
  Feed-to-meat ratio: 1.824
  Survival rate (%): 100%
  Relative weight gain rate (%): 106.1%
[1]
  Physical characteristics of the experimental chickens: normal physical characteristics
Weaned piglets; [3]
  Average weight gain: 11.83 kg
  Feed-to-meat ratio: 2.184
  Survival rate (%): 100%
  Total feed consumption: 258.35 kg
  Total weight gain: 118.3 kg
  Relative weight gain rate (%): 108.5%
[2]
  Average weight gain: 349 g
  Feed-to-meat ratio: 1.433

## N[C@@H](CC(=O)[O-])C(=O)[O-].[Cu+2] (racemic) [Compound 6, [(Cu(II))(DL-Asp)]]
[1]; [3]
  Average feed consumption: 912 g
  Average weight gain: 510 g
  Feed-to-meat ratio: 1.789
  Survival rate (%): 100%
  Relative weight gain rate (%): 107.6%
[1]
  Physical characteristics of the experimental chickens: normal physical characteristics
Weaned piglets; [3]
  Average weight gain: 12.08 kg
  Feed-to-meat ratio: 2.173
  Survival rate (%): 100%
  Total feed consumption: 262.46 kg
  Total weight gain: 120.8 kg
  Relative weight gain rate (%): 110.8%
[2]
  Average weight gain: 353 g
  Feed-to-meat ratio: 1.416

## NC(CC(=O)[O-])C(=O)[O-].O.O.[Cu+2] (racemic) [Compound 7, [(Cu(II))(DL-Asp)(H2O)2]·(H2O)0.16]
[1]; [3]
  Average feed consumption: 921 g
  Average weight gain: 515 g
  Feed-to-meat ratio: 1.789
  Survival rate (%): 100%
  Relative weight gain rate (%): 108.6%
[1]
  Physical characteristics of the experimental chickens: normal physical characteristics
Weaned piglets; [3]
  Average weight gain: 12.16 kg
  Feed-to-meat ratio: 2.198
  Survival rate (%): 100%
  Total feed consumption: 267.33 kg
  Total weight gain: 121.6 kg
  Relative weight gain rate (%): 111.6%
[2]
  Average weight gain: 350 g
  Feed-to-meat ratio: 1.429

## N[C@@H](CC(=O)[O-])C(=O)[O-].O.O.[Cu+2] [Compound 1, [(Cu(II))(L-Asp)(H2O)2]]
[1]; [4]
  Average feed consumption: 916 g
  Average weight gain: 497 g
  Feed-to-meat ratio: 1.843
  Survival rate (%): 100%
  Relative weight gain rate (%): 104.9%
[1]; [3]
  Average feed consumption: 923 g
  Average weight gain: 518 g
  Feed-to-meat ratio: 1.782
  Survival rate (%): 100%
  Relative weight gain rate (%): 109.3%
[1]; [5]
  Average feed consumption: 970 g
  Average weight gain: 546 g
  Feed-to-meat ratio: 1.777
  Survival rate (%): 100%
  Relative weight gain rate (%): 115.2%
[1]; [6]
  Average feed consumption: 1004 g
  Average weight gain: 567 g
  Feed-to-meat ratio: 1.771
  Survival rate (%): 100%
  Relative weight gain rate (%): 119.6%
[1]; [7]
  Average feed consumption: 926 g
  Average weight gain: 526 g
  Feed-to-meat ratio: 1.760
  Survival rate (%): 100%
  Relative weight gain rate (%): 111.0%
[1]; addition amount of 50-100 mg/kg
  Dose effect in the experimental results (broilers): exhibited a dose effect
[1]
  Physical characteristics of the experimental chickens: normal physical characteristics
[1]; [8]
  Average feed consumption: 919 g
  Average weight gain: 511 g
  Feed-to-meat ratio: 1.798
  Survival rate (%): 100%
  Relative weight gain rate (%): 107.8%
Weaned piglets; [9]
  Average weight gain: 11.26 kg
  Feed-to-meat ratio: 2.268
  Survival rate (%): 100%
  Total feed consumption: 255.34 kg
  Total weight gain: 112.6 kg
  Relative weight gain rate (%): 103.30%
Weaned piglets; [3]
  Average weight gain: 12.12 kg
  Feed-to-meat ratio: 2.121
  Survival rate (%): 100%
  Total feed consumption: 257.08 kg
  Total weight gain: 121.2 kg
  Relative weight gain rate (%): 111.19%
Weaned piglets; [5]
  Average weight gain: 12.21 kg
  Feed-to-meat ratio: 2.112
  Survival rate (%): 100%
  Total feed consumption: 257.86 kg
  Total weight gain: 122.1 kg
  Relative weight gain rate (%): 112.02%
Weaned piglets; 8-200 mg/kg groups
  Dose effect on improving the production performance of the experimental pigs: exhibited a dose effect
Weaned piglets; dose of 50 mg/kg, comparator copper sulfate 250 mg/kg
  Growth-promoting effect and feed conversion rate versus high-level copper sulfate group: close to those achieved in the high-level copper sulfate group
Weaned piglets; [8]
  Average weight gain: 11.66 kg
  Feed-to-meat ratio: 2.205
  Survival rate (%): 100%
  Total feed consumption: 257.09 kg
  Total weight gain: 116.6 kg
  Relative weight gain rate (%): 106.97%
Weaned piglets; [10]
  Average weight gain: 12.34 kg
  Feed-to-meat ratio: 2.093
  Survival rate (%): 100%
  Total feed consumption: 258.28 kg
  Total weight gain: 123.4 kg
  Relative weight gain rate (%): 113.21%
Weaned piglets; used at the same doses (50 mg/kg)
  Improvement in the feed conversion of the experimental pigs compared with compound 4: about 2 fold
[2]
  Average weight gain: 357 g
  Feed-to-meat ratio: 1.401

## NC(CC(=O)[CH2][Cu][O]C(=O)CC(N)C(=O)O)C(=O)O (centres unmarked) [Compound 8, reference compound]
[1]; [3]
  Survival rate (%): 100%
Weaned piglets; [3]
  Survival rate (%): 100%
Weaned piglets; 50 mg/kg, versus control group
  Production performance of the experimental pigs: substantially close to that achieved in the control group

## N[C@@H](CC(=O)O)C(=O)O [L-aspartic acid, reference compound]
[1]; [11]
  Average feed consumption: 899 g
  Average weight gain: 480 g
  Feed-to-meat ratio: 1.873
  Survival rate (%): 100%
  Relative weight gain rate (%): 101.3%
[1]; [12]
  Feed conversion decreased by: 0.32%
  Relative weight gain rate increased by: 4.2%
Weaned piglets; [13]
  Average weight gain: 11.04 kg
  Feed-to-meat ratio: 2.285
  Survival rate (%): 100%
  Total feed consumption: 252.27 kg
  Total weight gain: 110.4 kg
  Relative weight gain rate (%): 101.28%
